Reference: article PMC4140855, “Production of an Attenuated Phenol-Soluble Modulin Variant Unique to the MRSA Clonal Complex 30 Increases Severity of Bloodstream Infection” (PLoS Pathogens, 2014)

Biological target: T1, FPR3 (Homo sapiens, UniProt P25089)
T1 construct: expressed in transfected cells; host or cells: HL60 cells, stably transfected
T1 sequence (P25089 1-353): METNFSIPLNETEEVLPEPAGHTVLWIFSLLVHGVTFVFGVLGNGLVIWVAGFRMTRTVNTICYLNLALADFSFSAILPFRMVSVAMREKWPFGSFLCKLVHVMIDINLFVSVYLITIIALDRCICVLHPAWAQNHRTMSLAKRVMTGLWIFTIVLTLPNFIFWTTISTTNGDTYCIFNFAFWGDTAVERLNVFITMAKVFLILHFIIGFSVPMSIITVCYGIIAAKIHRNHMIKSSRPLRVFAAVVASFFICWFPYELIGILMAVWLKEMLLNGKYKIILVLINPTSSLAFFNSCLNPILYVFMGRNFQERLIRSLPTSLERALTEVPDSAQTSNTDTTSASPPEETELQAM
Test: Ca2+ flux in HL60 cells stably transfected with FPR3
Assay type: cell-based
Details: one site-binding model from Ca2+ flux, synthetic peptides, three biological and two technical replicates, error = standard deviation
Experimental: Next, we analyzed Ca^2+ flux as a general measure to test for neutrophil activation, as used in previous studies. HL60 cells stably transfected with different FPR receptor genes were used to determine which FPR receptors are differentially activated by PSMα3 versus PSMα3N22Y (Fig. 4A). […] At a peptide concentration of 100 nM, we observed a difference of ∼factor 2 in chemotactic activity comparing the two peptides when FPR1 recognition was inhibited by CHIPS, likely attributable to FPR2-mediated recognition. […]
(A) Differential activation of FPRs by PSMα3 versus PSMα3N22Y was measured using synthetic peptides and Ca^2+ flux observed in HL60 cells stably transfected with the corresponding FPR genes as readout, using three biological and two technical replicates. The calculated Kd values are shown on the right. […]
Human neutrophils were isolated from venous blood of healthy donors as described, [39]. Neutrophil chemotaxis and Ca^2+ flux were determined as previously described, [24]. […] Chemotaxis of neutrophils was determined using a transwell system (Costar) with analysis of neutrophil migration using fluorescence labeling. Calcium fluxes were monitored as a surrogate marker for chemotaxis since it can be measured more robustly and accurately than chemotaxis. […] Measurements of 2,000 events were performed and Ca^2+ flux was expressed as relative fluorescence corrected for buffer controls. […]

CSCC[C@H](NC=O)C(=O)N[C@@H](CCC(=O)O)C(=O)N[C@@H](Cc1ccccc1)C(=O)N[C@H](C(=O)N[C@@H](C)C(=O)N[C@@H](CCCCN)C(=O)N[C@@H](CC(C)C)C(=O)N[C@@H](Cc1ccccc1)C(=O)N[C@@H](CCCCN)C(=O)N[C@@H](Cc1ccccc1)C(=O)N[C@@H](Cc1ccccc1)C(=O)N[C@@H](CCCCN)C(=O)N[C@@H](CC(=O)O)C(=O)N[C@@H](CC(C)C)C(=O)N[C@@H](CC(C)C)C(=O)NCC(=O)N[C@@H](CCCCN)C(=O)N[C@@H](Cc1ccccc1)C(=O)N[C@@H](CC(C)C)C(=O)NCC(=O)N[C@@H](CC(N)=O)C(=O)N[C@@H](Cc1ccc(O)cc1)C(=O)O)C(C)C [PSMα3N22Y]
Kd: 953 ± 254 nM
